{"source": "PubChem BioAssay AID1259407", "about": "(Chemical Carcinogenesis Research Information System (CCRIS), 2018)", "system": "CCRIS mutagenicity, Ames/micronucleus/aberration tests", "test": "CCRIS mutagenicity studies", "key": {"[1]": {"details": "Test System: AMES SALMONELLA TYPHIMURIUM, Strain/Indicator: TA98, Metabolic Activation: NONE, Method: STANDARD PLATE"}, "[2]": {"details": "Test System: AMES SALMONELLA TYPHIMURIUM, Strain/Indicator: TA100, Metabolic Activation: NONE, Method: STANDARD PLATE"}, "[3]": {"details": "Test System: AMES SALMONELLA TYPHIMURIUM, Strain/Indicator: TA98, Metabolic Activation: RAT, LIVER, S-9, AROCLOR 1254, Method: STANDARD PLATE"}}, "note": "Calls of active or inactive are those of the source. No rule for the calls is given here.", "data": [{"molecule": "CC(C)CC(C)Nc1ccc(Nc2ccccc2)cc1", "note": "(stereo not given)", "values": [{"measurement": "mutagenic call", "setting": "Test System: AMES SALMONELLA TYPHIMURIUM, Strain/Indicator: TA97, Metabolic Activation: MOUSE, LIVER, S-9, DELOR 103, Method: STANDARD PLATE", "value": "inactive; negative"}, {"measurement": "mutagenic call", "setting": "Test System: AMES SALMONELLA TYPHIMURIUM, Strain/Indicator: TA97, Metabolic Activation: NONE, Method: STANDARD PLATE", "value": "inactive; negative"}, {"measurement": "mutagenic call", "setting": "Test System: AMES SALMONELLA TYPHIMURIUM, Strain/Indicator: TA98, Metabolic Activation: HAMSTER, LIVER, S-9, AROCLOR 1254 (10%), Method: PREINCUBATION", "value": "inactive; negative"}, {"measurement": "mutagenic call", "setting": "Test System: AMES SALMONELLA TYPHIMURIUM, Strain/Indicator: TA98, Metabolic Activation: MOUSE, LIVER, S-9, DELOR 103, Method: STANDARD PLATE", "value": "inactive; negative"}, {"measurement": "mutagenic call", "setting": "Test System: AMES SALMONELLA TYPHIMURIUM, Strain/Indicator: TA98, Metabolic Activation: NONE, Method: PREINCUBATION", "value": "inactive; negative"}, {"measurement": "mutagenic call", "setting": "[1]", "value": "inactive; negative"}, {"measurement": "mutagenic call", "setting": "Test System: AMES SALMONELLA TYPHIMURIUM, Strain/Indicator: TA98, Metabolic Activation: RAT, LIVER, S-9, AROCLOR 1254 (10%), Method: PREINCUBATION", "value": "inactive; negative"}, {"measurement": "mutagenic call", "setting": "Test System: AMES SALMONELLA TYPHIMURIUM, Strain/Indicator: TA100, Metabolic Activation: HAMSTER, LIVER, S-9, AROCLOR 1254 (10%), Method: PREINCUBATION", "value": "inactive; negative"}, {"measurement": "mutagenic call", "setting": "Test System: AMES SALMONELLA TYPHIMURIUM, Strain/Indicator: TA100, Metabolic Activation: MOUSE, LIVER, S-9, DELOR 103, Method: STANDARD PLATE", "value": "inactive; negative"}, {"measurement": "mutagenic call", "setting": "Test System: AMES SALMONELLA TYPHIMURIUM, Strain/Indicator: TA100, Metabolic Activation: NONE, Method: PREINCUBATION", "value": "inactive; negative"}, {"measurement": "mutagenic call", "setting": "[2]", "value": "inactive; negative"}, {"measurement": "mutagenic call", "setting": "Test System: AMES SALMONELLA TYPHIMURIUM, Strain/Indicator: TA100, Metabolic Activation: RAT, LIVER, S-9, AROCLOR 1254 (10%), Method: PREINCUBATION", "value": "inactive; negative"}, {"measurement": "mutagenic call", "setting": "Test System: AMES SALMONELLA TYPHIMURIUM, Strain/Indicator: TA1535, Metabolic Activation: HAMSTER, LIVER, S-9, AROCLOR 1254 (10%), Method: PREINCUBATION", "value": "inactive; negative"}, {"measurement": "mutagenic call", "setting": "Test System: AMES SALMONELLA TYPHIMURIUM, Strain/Indicator: TA1535, Metabolic Activation: NONE, Method: PREINCUBATION", "value": "inactive; negative"}, {"measurement": "mutagenic call", "setting": "Test System: AMES SALMONELLA TYPHIMURIUM, Strain/Indicator: TA1535, Metabolic Activation: NONE, Method: STANDARD PLATE", "value": "inactive; negative"}, {"measurement": "mutagenic call", "setting": "Test System: AMES SALMONELLA TYPHIMURIUM, Strain/Indicator: TA1535, Metabolic Activation: RAT, LIVER, S-9, AROCLOR 1254 (10%), Method: PREINCUBATION", "value": "inactive; negative"}, {"measurement": "mutagenic call", "setting": "Test System: AMES SALMONELLA TYPHIMURIUM, Strain/Indicator: TA1537, Metabolic Activation: HAMSTER, LIVER, S-9, AROCLOR 1254 (10%), Method: PREINCUBATION", "value": "inactive; negative"}, {"measurement": "mutagenic call", "setting": "Test System: AMES SALMONELLA TYPHIMURIUM, Strain/Indicator: TA1537, Metabolic Activation: NONE, Method: PREINCUBATION", "value": "inactive; negative"}, {"measurement": "mutagenic call", "setting": "Test System: AMES SALMONELLA TYPHIMURIUM, Strain/Indicator: TA1537, Metabolic Activation: RAT, LIVER, S-9, AROCLOR 1254 (10%), Method: PREINCUBATION", "value": "inactive; negative"}, {"measurement": "mutagenic call", "setting": "Test System: AMES SALMONELLA TYPHIMURIUM, Strain/Indicator: TA1538, Metabolic Activation: NONE, Method: STANDARD PLATE", "value": "inactive; negative"}]}, {"molecule": "C=C(C)CN(CC)c1c([N+](=O)[O-])cc(C(F)(F)F)cc1[N+](=O)[O-]", "values": [{"measurement": "mutagenic call", "setting": "End Point: In vitro chromasomal aberrations, Test System: Chinese hamster ovary (CHO) cells, Metabolic Activation: None", "value": "inactive; negative"}, {"measurement": "mutagenic call", "setting": "Test System: Ames Salmonella typhimurium, Strain/Indicator: TA98, Metabolic Activation: None, Method: Plate incorporation", "value": "inactive; negative"}, {"measurement": "mutagenic call", "setting": "Test System: Ames Salmonella typhimurium, Strain/Indicator: TA98, Metabolic Activation: Rat, Liver, S-9, Aroclor, Method: Plate incorporation", "value": "inactive; negative"}, {"measurement": "mutagenic call", "setting": "Test System: Ames Salmonella typhimurium, Strain/Indicator: TA100, Metabolic Activation: None, Method: Plate incorporation", "value": "inactive; negative"}, {"measurement": "mutagenic call", "setting": "Test System: Ames Salmonella typhimurium, Strain/Indicator: TA100, Metabolic Activation: Rat, Liver, S-9, Aroclor, Method: Plate incorporation", "value": "active; positive (weak response)"}, {"measurement": "mutagenic call", "setting": "Test System: Ames Salmonella typhimurium, Strain/Indicator: TA1535, Metabolic Activation: None, Method: Plate incorporation", "value": "inactive; negative"}, {"measurement": "mutagenic call", "setting": "Test System: Ames Salmonella typhimurium, Strain/Indicator: TA1535, Metabolic Activation: Rat, Liver, S-9, Aroclor, Method: Plate incorporation", "value": "active; positive (weak response)"}, {"measurement": "mutagenic call", "setting": "Test System: Ames Salmonella typhimurium, Strain/Indicator: TA1537, Metabolic Activation: None, Method: Plate incorporation", "value": "inactive; negative"}, {"measurement": "mutagenic call", "setting": "Test System: Ames Salmonella typhimurium, Strain/Indicator: TA1537, Metabolic Activation: Rat, Liver, S-9, Aroclor, Method: Plate incorporation", "value": "inactive; negative"}, {"measurement": "mutagenic call", "setting": "Test System: Ames Salmonella typhimurium, Strain/Indicator: TA1538, Metabolic Activation: None, Method: Plate incorporation", "value": "inactive; negative"}, {"measurement": "mutagenic call", "setting": "Test System: Ames Salmonella typhimurium, Strain/Indicator: TA1538, Metabolic Activation: Rat, Liver, S-9, Aroclor, Method: Plate incorporation", "value": "inactive; negative"}]}, {"molecule": "Clc1ccc2c(c1)oc1ccccc12", "values": [{"measurement": "mutagenic call", "setting": "[1]", "value": "active; positive"}, {"measurement": "mutagenic call", "setting": "Test System: AMES SALMONELLA TYPHIMURIUM, Strain/Indicator: TA98, Metabolic Activation: RAT, LIVER, S-9, PHENOBARBITAL AND NAPHTHOFLAVONE, Method: STANDARD PLATE", "value": "active; positive"}, {"measurement": "mutagenic call", "setting": "[2]", "value": "active; positive"}, {"measurement": "mutagenic call", "setting": "Test System: AMES SALMONELLA TYPHIMURIUM, Strain/Indicator: TA100, Metabolic Activation: RAT, LIVER, S-9, PHENOBARBITAL AND NAPHTHOFLAVONE, Method: STANDARD PLATE", "value": "active; positive"}]}, {"molecule": "CC(=O)ON(C(C)=O)c1ccc(Sc2ccccc2)cc1", "values": [{"measurement": "mutagenic call", "setting": "Test System: AMES SALMONELLA TYPHIMURIUM, Strain/Indicator: TA98(1,8-DNP6), Metabolic Activation: NONE, Method: STANDARD PLATE", "value": "active; positive"}, {"measurement": "mutagenic call", "setting": "[1]", "value": "active; positive"}, {"measurement": "mutagenic call", "setting": "[3]", "value": "active; positive"}]}, {"molecule": "C/C=C/C1=CC(=O)[C@]23C[C@H]2C(C)(C)O[C@]3(O)C1=O", "values": [{"measurement": "mutagenic call", "setting": "Test System: AMES SALMONELLA TYPHIMURIUM, Strain/Indicator: TA97, Metabolic Activation: NONE", "value": "active; positive"}, {"measurement": "mutagenic call", "setting": "Test System: AMES SALMONELLA TYPHIMURIUM, Strain/Indicator: TA98, Metabolic Activation: NONE", "value": "inactive; negative"}, {"measurement": "mutagenic call", "setting": "Test System: AMES SALMONELLA TYPHIMURIUM, Strain/Indicator: TA100, Metabolic Activation: NONE", "value": "active; positive"}, {"measurement": "mutagenic call", "setting": "Test System: AMES SALMONELLA TYPHIMURIUM, Strain/Indicator: TA102, Metabolic Activation: NONE", "value": "active; positive"}]}, {"molecule": "Cc1cc2cc3cc(C)c(N)cc3nc2cc1N", "values": [{"measurement": "mutagenic call", "setting": "Test System: AMES SALMONELLA TYPHIMURIUM, Strain/Indicator: TA98, Method: PREINCUBATION", "value": "active; positive"}, {"measurement": "mutagenic call", "setting": "Test System: AMES SALMONELLA TYPHIMURIUM, Strain/Indicator: TA100, Method: PREINCUBATION", "value": "active; positive"}]}, {"molecule": "Oc1ccc2c(ccc3c4ccccc4ccc23)c1", "values": [{"measurement": "mutagenic call", "setting": "[3]", "value": "inactive; negative"}, {"measurement": "mutagenic call", "setting": "[2]", "value": "inactive; negative"}]}, {"molecule": "O/N=C/C=N/O", "values": [{"measurement": "mutagenic call", "setting": "Test System: AMES SALMONELLA TYPHIMURIUM, Strain/Indicator: TA102, Metabolic Activation: RAT, LIVER, S-9, PHENOBARBITAL AND 5,6-BENZOFLAVONE, Method: STANDARD PLATE", "value": "inactive; negative"}, {"measurement": "mutagenic call", "setting": "Test System: AMES SALMONELLA TYPHIMURIUM, Strain/Indicator: TA2638, Metabolic Activation: RAT, LIVER, S-9, PHENOBARBITAL AND 5,6-BENZOFLAVONE, Method: STANDARD PLATE", "value": "inactive; negative"}, {"measurement": "mutagenic call", "setting": "Test System: E. COLI, Strain/Indicator: WP2 (PKM101), Metabolic Activation: RAT, LIVER, S-9, PHENOBARBITAL AND 5,6-BENZOFLAVONE, Method: STANDARD PLATE", "value": "inactive; negative"}, {"measurement": "mutagenic call", "setting": "Test System: E. COLI, Strain/Indicator: WP2 UVRA (PKM101), Metabolic Activation: RAT, LIVER, S-9, PHENOBARBITAL AND 5,6-BENZOFLAVONE, Method: STANDARD PLATE", "value": "active; positive"}]}]}
